# Assay results published in patent publication US20240124417A1, “COMPOUNDS USEFUL AS IMMUNOMODULATORS” (Bristol-Myers Squibb Company, priority 2019, published 2024).
# Target: T1, PD-1/PD-L1 (Homo sapiens, UniProt Q9NZQ7)
# T1 construct: TVMV protease site linker (C); made in house; host or cells: HEK293T cells
# Test: PD-1/PD-L1 Homogenous Time-Resolved Fluorescence (HTRF) binding assay
# Conditions: PD-L1-His 10 nM, PD-1-Ig 20 nM
# Outline: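 Inhibitors pre-incubated 15 min with PD-L1-His extracellular domain (10 nM final) in dPBS with 0.1% BSA and 0.05% Tween-20, then PD-1-Ig (20 nM final) added for a further 15 min. Read-out by HTRF with europium cryptate anti-Ig (1 nM) and APC anti-His (20 nM). Related pairs: PD-1-Ig/PD-L2-His (20/5 nM), CD80-His/PD-L1-Ig (100/10 nM).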
# T1 sequence (Q9NZQ7 18-239): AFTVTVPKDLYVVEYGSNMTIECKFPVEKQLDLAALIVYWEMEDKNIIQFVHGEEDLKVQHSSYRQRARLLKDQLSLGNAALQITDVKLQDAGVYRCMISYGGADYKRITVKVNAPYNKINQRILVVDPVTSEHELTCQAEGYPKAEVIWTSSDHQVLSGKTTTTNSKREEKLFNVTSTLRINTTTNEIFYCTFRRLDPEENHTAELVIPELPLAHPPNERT
row,Structure (SMILES),IC50 [nM]
1,"CC(=O)NC1CCN(CCCOc2cccc(-c3cccc(COc4cc(OCc5cncc(C#N)c5)c(CNCc5nnn[nH]5)cc4Cl)c3C)c2Cl)CC1 [Example 1057, N-(1-(3-((3′-((4-((((1H-Tetrazol-5-yl)methyl)amino)methyl)-2-chloro-5-((5-cyano-pyridin-3-yl)methoxy)phenoxy)methyl)-2-chloro-2′-methyl-[1,1′-biphenyl]-3-yl)oxy)-propyl)piperidin-4-yl)acetamide]",0.7
2,"CC(=O)NC1CCN(CCCOc2cccc(-c3cccc(COc4cc(OCc5cncc(C#N)c5)c(CN(C)CC(C)c5nn[nH]n5)cc4Cl)c3C)c2C)CC1 (stereo not drawn) [Example 1047, N-(1-(3-((3′-((4-(((2-(2H-Tetrazol-5-yl)propyl)(methyl)amino)methyl)-2-chloro-5-((5-cyanopyridin-3-yl)methoxy)phenoxy)methyl)-2,2′-dimethyl-[1,1′-biphenyl]-3-yl)oxy)-propyl)piperidin-4-yl)acetamide]",2.4
3,"Cc1c(COc2cc(OCc3cncc(C#N)c3)c(CNCc3ccncc3)cc2Cl)cccc1-c1cccc(OCCCN2CC[C@@H](O)C2)c1C [Example 2019, (R)-5-((4-chloro-5-((3′-(3-(3-hydroxypyrrolidin-1-yl)propoxy)-2,2′-dimethyl-[1,1′-biphenyl]-3-yl)methoxy)-2-(((pyridin-4-ylmethyl)amino)methyl)phenoxy)methyl)nicotinonitrile]",4.1
4,"[2H]C([2H])([2H])C(NCc1cc(Cl)c(OCc2cccc(-c3cccc(OCC4CCCN(C)C4)c3Cl)c2C)cc1OCc1cncc(C#N)c1)(c1ncon1)C([2H])([2H])[2H] (stereo not drawn) [Example 2624, 5-((2-(((2-(1,2,4-oxadiazol-3-yl)propan-2-yl-1,1,1,3,3,3-d6)amino)methyl)-4-chloro-5-((2′-chloro-2-methyl-3′-((1-methylpiperidin-3-yl)methoxy)-[1,1′-biphenyl]-3-yl)methoxy)phenoxy)methyl)nicotinonitrile]",3
5,"Cc1c(COc2cc(OCc3cncc(C#N)c3)c(CN(C)C(C)c3nnn[nH]3)cc2Cl)cccc1-c1cccc(OCCCN2CC[C@@H](O)C2)c1C (stereo partly drawn) [Example 1005, 5-((2-(((1-(1H-Tetrazol-5-yl)ethyl)(methyl)amino)methyl)-4-chloro-5-((3′-(3-((R)-3-hydroxypyrrolidin-1-yl)propoxy)-2,2′-dimethyl-[1,1′-biphenyl]-3-yl)methoxy)phenoxy)methyl)nicotinonitrile]",2.3
6,"Cc1c(COc2cc(OCc3cncc(C#N)c3)c(CNCCc3ncn[nH]3)cc2Cl)cccc1-c1cccc(OCCCN2CC[C@@H](O)C2)c1C [Example 2519, (R)-5-((2-(((2-(1H-1,2,4-triazol-5-yl)ethyl)amino)methyl)-4-chloro-5-((3′-(3-(3-hydroxypyrrolidin-1-yl)propoxy)-2,2′-dimethyl-[1,1′-biphenyl]-3-yl)methoxy)phenoxy)methyl)nicotinonitrile]",1
7,"Cc1c(COc2cc(OCc3cncc(C#N)c3)c(CNCc3cncs3)cc2Cl)cccc1-c1cccc(OC2CCN(C)CC2)c1Cl [Example 2046, 5-((4-chloro-5-((2′-chloro-2-methyl-3′-((1-methylpiperidin-4-yl)oxy)-[1,1′-biphenyl]-3-yl)methoxy)-2-(((thiazol-5-ylmethyl)amino)methyl)phenoxy)methyl)nicotinonitrile]",32.3
8,"Cc1c(COc2cc(OCc3cncc(C#N)c3)c(CN(C)Cc3c[nH]cn3)cc2Cl)cccc1-c1cccc(OCCCN2CCC(O)(CO)CC2)c1Cl [Example 2014, 5-((2-((((1H-imidazol-4-yl)methyl)(methyl)amino)methyl)-4-chloro-5-((2′-chloro-3′-(3-(4-hydroxy-4-(hydroxymethyl)piperidin-1-yl)propoxy)-2-methyl-[1,1′-biphenyl]-3-yl)methoxy)phenoxy)methyl)nicotinonitrile]",0.5
9,"Cc1c(COc2cc(OCc3cncc(C#N)c3)c(CNCc3cn[nH]c3)cc2Cl)cccc1-c1cccc(OC2CCC(N3CCCC3)CC2)c1Cl (stereo not drawn) [Example 2052, 5-((2-((((1H-pyrazol-4-yl)methyl)amino)methyl)-4-chloro-5-((2′-chloro-2-methyl-3′-((4-(pyrrolidin-1-yl)cyclohexyl)oxy)-[1,1′-biphenyl]-3-yl)methoxy)phenoxy)methyl)nicotinonitrile]",9.6
10,"Cc1noc(C)c1CN(C)Cc1cc(Cl)c(OCc2cccc(-c3cccc(OCCCN4CC[C@@H](O)C4)c3C)c2C)cc1OCc1cncc(C#N)c1 [Example 2527, (R)-5-((4-chloro-2-((((3,5-dimethylisoxazol-4-yl)methyl)(methyl)amino)methyl)-5-((3′-(3-(3-hydroxypyrrolidin-1-yl)propoxy)-2,2′-dimethyl-[1,1′-biphenyl]-3-yl)methoxy)phenoxy)methyl)nicotinonitrile]",5.4
11,"CC(=O)NC1CCN(CCCOc2cccc(-c3cccc(COc4cc(OCc5cncc(C#N)c5)c(CN5CCCCC5c5cn[nH]c5)cc4Cl)c3C)c2Cl)CC1 (stereo not drawn) [Example 1059, N-(1-(3-((3′-((4-((2-(1H-Pyrazol-4-yl)piperidin-1-yl)methyl)-2-chloro-5-((5-cyano-pyridin-3-yl)methoxy)phenoxy)methyl)-2-chloro-2′-methyl-[1,1′-biphenyl]-3-yl)oxy)-propyl)piperidin-4-yl)acetamide]",3.6
12,"Cc1c(COc2cc(OCc3cncc(C#N)c3)c(CNCc3cnco3)cc2Cl)cccc1-c1cccc(OCC2CCCN(C)C2)c1Cl (stereo not drawn) [Example 2591, 5-((4-chloro-5-((2′-chloro-2-methyl-3′-((1-methylpiperidin-3-yl)methoxy)-[1,1′-biphenyl]-3-yl)methoxy)-2-(((oxazol-5-ylmethyl)amino)methyl)phenoxy)methyl)nicotinonitrile]",1.9
13,"Cc1c(COc2cc(OCc3cncc(C#N)c3)c(CN(C)Cc3nc4ccccc4s3)cc2Cl)cccc1-c1cccc(OCCCN2CC[C@@H](O)C2)c1C [Example 2554, (R)-5-((2-(((benzo[d]thiazol-2-ylmethyl)(methyl)amino)methyl)-4-chloro-5-((3′-(3-(3-hydroxypyrrolidin-1-yl)propoxy)-2,2′-dimethyl-[1,1′-biphenyl]-3-yl)methoxy)phenoxy)methyl)nicotinonitrile]",258
14,"CCN(Cc1nnn[nH]1)Cc1cc(Cl)c(OCc2cccc(-c3cccc(OCCCN4CC[C@@H](O)C4)c3C)c2C)cc1OCc1cncc(C#N)c1 [Example 1007, (R)-5-((2-((((1H-Tetrazol-5-yl)methyl)(ethyl)amino)methyl)-4-chloro-5-((3′-(3-(3-hydroxypyrrolidin-1-yl)propoxy)-2,2′-dimethyl-[1,1′-biphenyl]-3-yl)methoxy)phenoxy)methyl)nicotinonitrile]",3
15,"Cc1c(COc2cc(OCc3cncc(C#N)c3)c(CN(C)CCc3nc4ccccc4[nH]3)cc2Cl)cccc1-c1cccc(OCCCN2CC[C@@H](O)C2)c1C [Example 2508, (R)-5-((2-(((2-(1H-benzo[d]imidazol-2-yl)ethyl)(methyl)amino)methyl)-4-chloro-5-((3′-(3-(3-hydroxypyrrolidin-1-yl)propoxy)-2,2′-dimethyl-[1,1′-biphenyl]-3-yl)methoxy)phenoxy)methyl)nicotinonitrile]",6.2
